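Dose response: 5 concentrations. Exposure: 48 h. Format: 96-well plates. Endpoint: linear interpolation; highest concentration if not reached. Abbreviation: GI50, concentration required for 50% inhibition of growth.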 Calls of active or inactive are those of the source. No stated cut-off is given here; in the data, active = GI50 up to about 1.1 µM and inactive = higher.
Legend:
Assay in all cases: NCI anticancer screen, dose series, 48 h
OVCAR-4 = tested on: OVCAR-4
HCT-116 = tested on: HCT-116
CCRF-CEM = tested on: CCRF-CEM
CAKI-1 = tested on: CAKI-1
BT-549 = tested on: BT-549
MOLT-4 = tested on: MOLT-4
M14 = tested on: M14
UACC-62 = tested on: UACC-62
ACHN = tested on: ACHN
HL-60 = tested on: HL-60
SK-MEL-5 = tested on: SK-MEL-5
SN12C = tested on: SN12C
U-251 = tested on: U-251
SF-295 = tested on: SF-295
RXF 393 = tested on: RXF 393
K562 = tested on: K562
MDA-N = tested on: MDA-N
NCI-H226 = tested on: NCI-H226
HOP-92 = tested on: HOP-92
SR = tested on: SR

For `COc1ccc2c(c1)O[C@@H]1C(O)Oc3cc(OC)c(OC)cc3[C@]1(O)C2=O` (some centres not stated), the GI50 (OVCAR-4) was 35.1 µM (inactive), the GI50 (HCT-116) was 86.3 µM (inactive) and the GI50 (CCRF-CEM) was 38.9 µM (inactive). The GI50 (CAKI-1) was > 100 µM (inactive), the GI50 (BT-549) was 12.6 µM (inactive) and the GI50 (MOLT-4) was 36.6 µM (inactive). For the same compound, the GI50 (M14) was > 100 µM (inactive), the GI50 (UACC-62) was 78 µM (inactive) and the GI50 (ACHN) was > 100 µM (inactive). The GI50 (HL-60) was 32.1 µM (inactive), the GI50 (SK-MEL-5) was 10.5 µM (inactive) and the GI50 (SN12C) was > 100 µM (inactive). For the same compound, the GI50 (U-251) was 59 µM (inactive), the GI50 (SF-295) was 24 µM (inactive) and the GI50 (RXF 393) was > 100 µM (inactive). For the same compound, the GI50 (K562) was 42.9 µM (inactive), the GI50 (MDA-N) was 50.1 µM (inactive) and the GI50 (NCI-H226) was 10.4 µM (inactive).
With `C=CCN(c1cc(OCc2ccccc2)c(NC(C)=O)cc1[N+](=O)[O-])S(C)(=O)=O` the GI50 (OVCAR-4) was > 100 µM (inactive), the GI50 (HCT-116) was 28.5 µM (inactive) and the GI50 (CCRF-CEM) was > 100 µM (inactive). The GI50 (CAKI-1) was 42 µM (inactive), the GI50 (BT-549) was 28.8 µM (inactive) and the GI50 (HOP-92) was 19.2 µM (inactive). For the same compound, the GI50 (MOLT-4) was > 100 µM (inactive), the GI50 (M14) was 38.3 µM (inactive) and the GI50 (UACC-62) was 58.9 µM (inactive). The GI50 (ACHN) was 52.7 µM (inactive), the GI50 (HL-60) was > 100 µM (inactive) and the GI50 (SK-MEL-5) was > 100 µM (inactive). For the same compound, the GI50 (SN12C) was 29 µM (inactive), the GI50 (SF-295) was 23.5 µM (inactive) and the GI50 (RXF 393) was 18.7 µM (inactive). For the same compound, the GI50 (K562) was > 100 µM (inactive), the GI50 (MDA-N) was > 100 µM (inactive) and the GI50 (NCI-H226) was 12.7 µM (inactive).
In the case of `COc1cccc2c1C(=O)c1c(O)c3c(c(O)c1C2=O)C[C@H](O)C[C@@H]3OC1CC(N)C(O)C(C)O1` (some centres not stated), the GI50 (OVCAR-4) is reported as 4.36 µM (inactive), the GI50 (HCT-116) is reported as 0.245 µM (active) and the GI50 (CCRF-CEM) is reported as 0.259 µM (active). For the same compound, the GI50 (CAKI-1) was 1.08 µM (active), the GI50 (SR) was < 0.01 µM (active) and the GI50 (BT-549) was 3.04 µM (inactive). For the same compound, the GI50 (HOP-92) was 2 µM (inactive), the GI50 (MOLT-4) was < 0.01 µM (active) and the GI50 (UACC-62) was 0.255 µM (active). For the same compound, the GI50 (ACHN) was 1.17 µM (inactive), the GI50 (SK-MEL-5) was 0.522 µM (active) and the GI50 (SF-295) was 1.44 µM (inactive). For the same compound, the GI50 (RXF 393) was 6.58 µM (inactive), the GI50 (K562) was 1.79 µM (inactive) and the GI50 (NCI-H226) was 1.08 µM (active).
`CC1=NNC(=O)C1C1(C(=O)O)CC(c2c[nH]c3ccccc23)=NC(=S)N1` (configuration not stated) was tested, and the GI50 (HCT-116) was 32.8 µM (inactive), the GI50 (CCRF-CEM) was 27.2 µM (inactive) and the GI50 (CAKI-1) was 43.5 µM (inactive). For the same compound, the GI50 (BT-549) was 96.4 µM (inactive), the GI50 (HOP-92) was 22.3 µM (inactive) and the GI50 (MOLT-4) was 19.4 µM (inactive). For the same compound, the GI50 (M14) was 16.9 µM (inactive), the GI50 (UACC-62) was 41.2 µM (inactive) and the GI50 (ACHN) was 33.5 µM (inactive). For the same compound, the GI50 (HL-60) was 38.3 µM (inactive), the GI50 (SK-MEL-5) was 14.4 µM (inactive) and the GI50 (SN12C) was 40 µM (inactive). For the same compound, the GI50 (U-251) was 26 µM (inactive), the GI50 (SF-295) was 19.4 µM (inactive) and the GI50 (RXF 393) was 28.1 µM (inactive). For the same compound, the GI50 (K562) was 25.4 µM (inactive), the GI50 (MDA-N) was 37.3 µM (inactive) and the GI50 (NCI-H226) was 10.1 µM (inactive).
`COc1ccc(S(=O)(=O)Nc2ccc(-c3csc(N4C(=O)/C(=C/C=C\c5ccccc5)N=C4c4ccccc4)n3)cc2)cc1Cl` was tested, and the GI50 (OVCAR-4) was 25.9 µM (inactive), the GI50 (HCT-116) was 25.7 µM (inactive) and the GI50 (CCRF-CEM) was 20.1 µM (inactive). For the same compound, the GI50 (CAKI-1) was 36.1 µM (inactive), the GI50 (SR) was 31.8 µM (inactive) and the GI50 (HOP-92) was 16.6 µM (inactive). The GI50 (MOLT-4) was 22.8 µM (inactive), the GI50 (M14) was 27.6 µM (inactive) and the GI50 (UACC-62) was 19.4 µM (inactive). The GI50 (ACHN) was 31.1 µM (inactive), the GI50 (HL-60) was 14 µM (inactive) and the GI50 (SK-MEL-5) was 27.4 µM (inactive). The GI50 (SN12C) was 33.2 µM (inactive), the GI50 (U-251) was 28.8 µM (inactive) and the GI50 (SF-295) was 38.5 µM (inactive). The GI50 (RXF 393) was 22.3 µM (inactive), the GI50 (K562) was 35.2 µM (inactive) and the GI50 (MDA-N) was 31.3 µM (inactive). For the same compound, the GI50 (NCI-H226) was 34 µM (inactive).
With `CCCSc1ccc2[nH]c(/N=C/c3ccccc3)cc2c1` the GI50 (OVCAR-4) was 16.8 µM (inactive), the GI50 (HCT-116) was 17.7 µM (inactive) and the GI50 (CCRF-CEM) was 13.5 µM (inactive). The GI50 (CAKI-1) was 19.4 µM (inactive), the GI50 (SR) was 3.51 µM (inactive) and the GI50 (BT-549) was 33.7 µM (inactive). The GI50 (HOP-92) was 25.5 µM (inactive), the GI50 (MOLT-4) was 13.7 µM (inactive) and the GI50 (M14) was 25.5 µM (inactive). For the same compound, the GI50 (UACC-62) was 17.4 µM (inactive), the GI50 (ACHN) was 31.2 µM (inactive) and the GI50 (SK-MEL-5) was 7.14 µM (inactive). The GI50 (SN12C) was 27.3 µM (inactive), the GI50 (RXF 393) was 16.4 µM (inactive) and the GI50 (K562) was 8.34 µM (inactive). For the same compound, the GI50 (MDA-N) was 7.67 µM (inactive).
For `COc1ccc(CCNC(=O)[C@H]2CCCC[C@@H]2CCO)cc1OC`, the GI50 (OVCAR-4) was > 100 µM (inactive), the GI50 (HCT-116) was > 100 µM (inactive) and the GI50 (CCRF-CEM) was > 100 µM (inactive). For the same compound, the GI50 (CAKI-1) was > 100 µM (inactive), the GI50 (SR) was > 100 µM (inactive) and the GI50 (BT-549) was > 100 µM (inactive). For the same compound, the GI50 (HOP-92) was > 100 µM (inactive), the GI50 (MOLT-4) was > 100 µM (inactive) and the GI50 (M14) was > 100 µM (inactive). The GI50 (UACC-62) was > 100 µM (inactive), the GI50 (ACHN) was > 100 µM (inactive) and the GI50 (HL-60) was > 100 µM (inactive). For the same compound, the GI50 (SK-MEL-5) was > 100 µM (inactive), the GI50 (SN12C) was > 100 µM (inactive) and the GI50 (U-251) was > 100 µM (inactive). The GI50 (SF-295) was > 100 µM (inactive), the GI50 (RXF 393) was > 100 µM (inactive) and the GI50 (K562) was > 100 µM (inactive). The GI50 (NCI-H226) was > 100 µM (inactive).
In the case of `CC1(C)CCC2(C(=O)OC3OC(CO)C(O)C(O)C3O)CCC3(C)C(=CCC4C5(C)CCC(OC6OC(CO)C(O)C(O)C6O)C(C)(C)C5CCC43C)C2C1` (configuration not stated), the GI50 (OVCAR-4) is reported as 11.8 µM (inactive), the GI50 (HCT-116) is reported as 8.61 µM (inactive) and the GI50 (CCRF-CEM) is reported as 4.51 µM (inactive). The GI50 (CAKI-1) was > 25 µM (inactive), the GI50 (SR) was 3.89 µM (inactive) and the GI50 (BT-549) was 9.44 µM (inactive). The GI50 (HOP-92) was 7.74 µM (inactive), the GI50 (MOLT-4) was 7.26 µM (inactive) and the GI50 (M14) was 14.8 µM (inactive). For the same compound, the GI50 (UACC-62) was 8.67 µM (inactive), the GI50 (ACHN) was > 25 µM (inactive) and the GI50 (HL-60) was 4.41 µM (inactive). The GI50 (SK-MEL-5) was 9.57 µM (inactive), the GI50 (SN12C) was 10.9 µM (inactive) and the GI50 (U-251) was 4.49 µM (inactive). For the same compound, the GI50 (SF-295) was 15.2 µM (inactive), the GI50 (RXF 393) was > 25 µM (inactive) and the GI50 (K562) was 9.04 µM (inactive). The GI50 (NCI-H226) was 10.5 µM (inactive).

Source: ChEMBL document CHEMBL1201862, “PubChem BioAssay data set” (2004)
